Test results reported in US20260250519A1, “Copper Containing Compounds and Compositions for Antimicrobial Paint and Coating” (ARXADA, LLC, priority 2022, published 2026).

Assays:
Assay type in all cases: cell-based
[1] = tested on: Aspergillus niger (ATCC 6275), Aureobasidium pullulans (ATCC 9348) and Penicillium citrinum (ATCC 9849); assay: ASTM resistance to growth of mold on interior coatings in an environmental chamber; settings: no Cu additive, Quat level 2000 ppm; 4 weeks in chamber
Procedure: Two coatings were brushed onto both faces and all edges of wood panel (allowing 1 day between coats). The resulting coated panels were dried at 23±2° C. and 50±5% relative humidity for 4 days. […] In the environmental chamber, the dried coated panels were hung vertically with the bottom approximately 3 inch above the surface of the inoculated soil and with sufficient spacing to allow free circulation of air and to prevent contact between panels or with wall surfaces. […] The degrees of fungal contamination were assessed using the rating scale in Table 9.

[2] = tested on: Escherichia coli (ATCC 8739); assay: Modified JIS Z2801, increased inoculum, Quat-containing matte wall paint; settings: Quat 5200 ppm, Cu 0 ppm in matte wall paint
Procedure: (§1) The antibacterial efficacies of copper-containing composition in dry paint film were evaluated using a modified JIS Z2801 method (Antimicrobial Product-Test for Antimicrobial Activity and Efficacy: 2000) by reducing contact time from 24 hour to 2 hour, including Pseudomonas aeruginosa as an additional bacteria and increasing inoculum strength to 5.0 to 10.0×10^7 cfm/mL. […] The paints were brushed onto the sterilized plastic filter paper. Each side of the filter paper was painted twice and the resulting coated paper was dried at ambient condition for 3 days. The dried coatings were then leached against 10 L water for 24 hours (4 water changes for the first 8 hour). Each of three (3) bacterial inoculum (0.4 mL): Escherichia coli (ATCC 8739), Staphylococcus aureus (ATCC 6538), Pseudomonas aeruginosa (ATCC 15442) was used to inoculate the dry film (40 mm×40 mm) of test paint to achieve 5.0 to 10.0×10^7 cfm/mL of inoculum concentration per each bacteria on dry surface of each test paint. The test paints were incubated at 35±1° C. and 90% RH for 2 hour. The degrees of bacterial contamination were determined relative to blank paint via viable cell count of bacteria by agar plate culture method.

[3] = tested on: Pseudomonas aeruginosa (ATCC 15442); assay: as above; settings: Quat 5200 ppm, Cu 0 ppm in matte wall paint
Procedure: as §1

[4] = tested on: Staphylococcus aureus (ATCC 6538); assay: as above; settings: Quat 5200 ppm, Cu 0 ppm in matte wall paint
Procedure: as §1

[5] = tested on: Pseudomonas aeruginosa (ATCC 15442); assay: Interim EPA method with dry and chemical abrasion, Quat-containing matte wall paint; settings: Quat 5200 ppm, Cu 0 ppm; for 2 hr Contact Time % ↓ / 2 hr Contact Time Log10 ↓: relative to uncoated substrate
Procedure: (§2) The antibacterial efficacies of copper-containing composition in dry paint film were evaluated using an interim EPA method (Interim Method for Evaluating the Efficacy of Antimicrobial Surface Coatings: Oct. 2, 2020). […] The paints were drawn-down onto the sterilized steel substrate (1 inch by 1 inch of AISI type 304 stainless steel). The resulting coated substrate was dried at ambient condition for at least 24 hours. Some of the dried coated substrates were further subject to dry and chemical abrasion for 1 week residual efficacy claim. As for dry abrasion, the coated substrate was exposed to 10 cycles of dry abrasion by a Scotch Brite Non-Scratch Scrub Sponge using a BYK Gardner-Scrub machine, each of which comprises 16 single passes. As for chemical abrasion, the scrub sponge was soaked in sodium hypochlorite (2000 ppm NaOCl) solution and EPA-registered Quat-containing Nugen™ MB^5N-256 (256× dilution) disinfectant prior to the abrasion. The coated substrate was exposed to 10 cycles of chemical abrasion by the soaked scrub sponge, each of which comprises 8 single passes. After rinsing and drying to remove the residual NaOCl and Quat, each of two (2) bacterial inoculum ([…]): Staphylococcus aureus (ATCC 6538) and Pseudomonas aeruginosa (ATCC 15442) was used to inoculate the dry film of test paint to achieve 10^4 to 10^5 cfm/carrier of bacteria on dry surface of each test paint. The test paints were incubated at 22° C. and 30-40% RH for 2 hours. The degrees of bacterial contamination were determined via viable cell count for antibacterial efficacy relative to the uncoated substrate.

[6] = tested on: Staphylococcus aureus (ATCC 6538); assay: as above; settings: Quat 5200 ppm, Cu 0 ppm; for 2 hr Contact Time % ↓ / 2 hr Contact Time Log10 ↓: relative to uncoated substrate
Procedure: as §2

N,N-Didecyl-N,N-dimethylammonium carbonate/bicarbonate [reference compound]
Avg Rating [1]: 3.3

alkyl (50% C14, 10% C16, 40% C12) dimethyl benzyl ammonium chloride [Quat]
2 hr Contact Time Avg [2]: 1.4E+02 | 2 hr Contact Time Log10 [2]: 2.16 | 2 hr Contact Time Avg [3]: 2.9E+05 | 2 hr Contact Time Log10 [3]: 5.46 | 2 hr Contact Time Avg [4]: <1.5E+02 | 2 hr Contact Time Log10 [4]: <2.19 | 2 hr Contact Time Avg ([5]; Dry Abraded): 1.0E+2 | 2 hr Contact Time Log10 ([5]; Dry Abraded): 2.01 | 2 hr Contact Time % ↓ ([5]; Dry Abraded): 99.6285% | 2 hr Contact Time Log10 ↓ ([5]; Dry Abraded): 2.43 | 2 hr Contact Time Avg ([5]; NaOCl Abraded): 1.4E+0 | 2 hr Contact Time Log10 ([5]; NaOCl Abraded): 0.16 | 2 hr Contact Time % ↓ ([5]; NaOCl Abraded): 99.9994% | 2 hr Contact Time Log10 ↓ ([5]; NaOCl Abraded): 4.28 | 2 hr Contact Time Avg ([5]; Quat Abraded): 1.1E+2 | 2 hr Contact Time Log10 ([5]; Quat Abraded): 2.06 | 2 hr Contact Time % ↓ ([5]; Quat Abraded): 99.5831% | 2 hr Contact Time Log10 ↓ ([5]; Quat Abraded): 2.38 | 2 hr Contact Time Avg ([5]; Unexposed): 1.7E+3 | 2 hr Contact Time Log10 ([5]; Unexposed): 3.23 | 2 hr Contact Time % ↓ ([5]; Unexposed): 93.8340% | 2 hr Contact Time Log10 ↓ ([5]; Unexposed): 1.21 | 2 hr Contact Time Avg ([6]; Dry Abraded): 1.0E+0 | 2 hr Contact Time Log10 ([6]; Dry Abraded): 0.00 | 2 hr Contact Time % ↓ ([6]; Dry Abraded): 99.9990% | 2 hr Contact Time Log10 ↓ ([6]; Dry Abraded): 5.00 | 2 hr Contact Time Avg ([6]; NaOCl Abraded): 1.0E+0 | 2 hr Contact Time Log10 ([6]; NaOCl Abraded): 0.00 | 2 hr Contact Time % ↓ ([6]; NaOCl Abraded): 99.9990% | 2 hr Contact Time Log10 ↓ ([6]; NaOCl Abraded): 5.00 | 2 hr Contact Time Avg ([6]; Unexposed): 1.0E+0 | 2 hr Contact Time Log10 ([6]; Unexposed): 0.00 | 2 hr Contact Time % ↓ ([6]; Unexposed): 99.9990% | 2 hr Contact Time Log10 ↓ ([6]; Unexposed): 5.00
